Data: patent US20060074243A1, “Hydroxamic acid and amide compounds and their use as protease inhibitors” (Pharmacia Corporation, priority 2002, published 2006)

Columns and labels:
Assay in all cases: In vitro MMP inhibition analysis (fluorogenic peptide substrate cleavage), Ki
Format in all cases: biochemical
Human recombinant MMP-1 = biological target: T1, Human recombinant MMP-1 (Homo sapiens, UniProt P03956)
T1 construct: made in house; host or cells: MMP-1-transfected HT-1080 cells (spent media)
T1 sequence (P03956 100-469): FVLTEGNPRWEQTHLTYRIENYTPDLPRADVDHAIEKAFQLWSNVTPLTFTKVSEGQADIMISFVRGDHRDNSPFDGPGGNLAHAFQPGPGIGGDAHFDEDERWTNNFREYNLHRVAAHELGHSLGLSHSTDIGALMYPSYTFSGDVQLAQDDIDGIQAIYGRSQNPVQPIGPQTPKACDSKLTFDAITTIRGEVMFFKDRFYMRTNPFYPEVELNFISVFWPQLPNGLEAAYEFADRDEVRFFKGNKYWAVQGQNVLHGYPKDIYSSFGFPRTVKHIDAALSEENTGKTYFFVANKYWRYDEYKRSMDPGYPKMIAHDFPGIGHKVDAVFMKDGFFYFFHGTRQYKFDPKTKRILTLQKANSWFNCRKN
Description: (§1) Several compounds and salts were analyzed in an in vitro assay to determine their ability to inhibit the MMP cleavage of peptide substrates. Inhibition constant (Ki) were calculated from the assayed compound-MMP interactions.
(§2) Human recombinant MMP-1, MMP-2, MMP-9, MMP-13, and MMP-14 were used in this assay. All enzymes were prepared in Assignee's laboratories following usual laboratory procedures. Protocols for the preparation and use of these enzymes are available in the scientific literature. See, e.g., Enzyme Nomenclature (Academic Press, San Diego, Calif., 1992) (and the citations therein). See also, Frije et al., J. Biol. Chem., 26(24), 16766-73 (1994).
The MMP-1 proenzyme was purified from the spent media of MMP-1-transfected HT-1080 cells provided by Dr. Harold Welgus of Washington University (St. Louis, Mo.). The protein was purified on a zinc chelating column.
(§3) All MMPs were activated using 4-aminophenylmercuric acetate (“APMA”, Sigma Chemical, St. Louis, Mo.) or trypsin. MMP-9 also was activated using human recombinant MMP-3 (purified in Assignee's laboratory following standard cloning and purification techniques).
(§4) The following fluorogenic, methoxycoumarin-containing polypeptide substrate (I) was used in the MMP inhibition assays: MCA-ArgProLeuGlyLeuDpaAlaArgGluArgNH2 (I) “MCA” is 7-methoxycoumarin-4-yl acetyl. Substrate (I) was prepared Assignee's laboratory. In the absence of MMP inhibitory activity, the substrate is cleaved at the Gly-Leu peptide bond. This cleavage separates the highly fluorogenic peptide from the 2,4-dinitrophenyl quencher, thus resulting in increase of fluorescent intensity.
(§5) The stock solutions of the assayed compounds and salts were prepared in […] (DMSO). These stock solutions were diluted in Buffer A (100 mM Tris-HCl, 100 mM NaCl, 10 mM CaCl2, 0.05% polyoxyethylene 23 lauryl ether, pH 7.5) to obtain solutions with different compound concentrations, i.e., assay solutions with different concentrations of the assayed […] compound. The experiment controls contained the same amount of Buffer A/DMSO as the assayed sample, but contained none of the tested compound or salt.
(§6) The assays from which the Ki determinations were made were performed as follows. The assayed compound samples were incubated in separate wells of untreated white polystyrene plates (Nunc Nalgene International, Rochester, N.Y.), and analyzed on a Tecan SpectraFlour Plus plate reader. The excitation wavelength was 330 nm, and the emission wavelength—420 nm. All samples (assayed compounds and controls) were incubated in separate plate wells at room temperature for 1 hr in the presence of 4 μM of MMP substrate (I). In the absence of MMP inhibitory activity, substrate (I) was cleaved at the Gly-Leu bond resulting in an increase of relative fluorescence. Inhibition was observed as a reduced rate of this increase in relative fluorescence. […] This protocol is a modification of method by Knight et al., FEBS Lett., 296(3), 263-266 (1992). Apparent inhibitory constants were determined by non-linear regression of reaction velocity as a function of inhibitor and enzyme concentration using Morrison's equation, as described by Kuzmic, Anal. Biochem. 286, 45-50 (2000). Modifications were made in the non-linear regression method to allow a common control reaction rate and effective enzyme concentration to be shared between all dose-response relationships on a given assay plate. Since the substrate concentration was chosen to be at or below the Km, the apparent Ki's from this analysis were reported as Ki's without correction for the influence of substrate.
(§7) The above protocols were used to determine Ki constants for the compounds in Examples 2-35 above. All Ki values in Table 1 are given in nM units.

Human recombinant MMP-2 = biological target: T2, Human recombinant MMP-2 (Homo sapiens, UniProt P08253)
T2 construct: made in house; host or cells: MMP-2-transfected p2AHT2 cells
T2 sequence (P08253 110-660): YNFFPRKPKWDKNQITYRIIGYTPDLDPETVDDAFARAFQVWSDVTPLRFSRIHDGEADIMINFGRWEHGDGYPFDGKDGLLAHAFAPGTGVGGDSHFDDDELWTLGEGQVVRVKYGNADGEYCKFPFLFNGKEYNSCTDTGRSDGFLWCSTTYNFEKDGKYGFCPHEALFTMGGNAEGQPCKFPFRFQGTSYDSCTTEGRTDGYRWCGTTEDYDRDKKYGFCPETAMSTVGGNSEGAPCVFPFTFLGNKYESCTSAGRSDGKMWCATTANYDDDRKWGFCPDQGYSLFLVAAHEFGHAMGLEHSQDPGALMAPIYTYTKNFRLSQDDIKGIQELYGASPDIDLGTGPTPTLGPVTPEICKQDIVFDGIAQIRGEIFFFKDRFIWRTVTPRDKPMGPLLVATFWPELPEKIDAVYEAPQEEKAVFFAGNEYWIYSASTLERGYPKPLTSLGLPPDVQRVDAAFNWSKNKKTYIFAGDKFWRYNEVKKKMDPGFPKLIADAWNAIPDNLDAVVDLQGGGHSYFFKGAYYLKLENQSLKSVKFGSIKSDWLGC
Description: as §1, §2
The MMP-2 proenzyme was purified by gelatin Sepharose chromatography from MMP-2-transfected p2AHT2 cells provided by Dr. Gregory Goldberg of Washington University (St. Louis, Mo.).
as §3, §4, §5, §6, §7

Human recombinant MMP-9 = biological target: T3, Human recombinant MMP-9 (Homo sapiens, UniProt P14780)
T3 construct: made in house; host or cells: MMP-9-transfected HT1080 cells (spent media)
T3 sequence (P14780 107-707 limits assumed): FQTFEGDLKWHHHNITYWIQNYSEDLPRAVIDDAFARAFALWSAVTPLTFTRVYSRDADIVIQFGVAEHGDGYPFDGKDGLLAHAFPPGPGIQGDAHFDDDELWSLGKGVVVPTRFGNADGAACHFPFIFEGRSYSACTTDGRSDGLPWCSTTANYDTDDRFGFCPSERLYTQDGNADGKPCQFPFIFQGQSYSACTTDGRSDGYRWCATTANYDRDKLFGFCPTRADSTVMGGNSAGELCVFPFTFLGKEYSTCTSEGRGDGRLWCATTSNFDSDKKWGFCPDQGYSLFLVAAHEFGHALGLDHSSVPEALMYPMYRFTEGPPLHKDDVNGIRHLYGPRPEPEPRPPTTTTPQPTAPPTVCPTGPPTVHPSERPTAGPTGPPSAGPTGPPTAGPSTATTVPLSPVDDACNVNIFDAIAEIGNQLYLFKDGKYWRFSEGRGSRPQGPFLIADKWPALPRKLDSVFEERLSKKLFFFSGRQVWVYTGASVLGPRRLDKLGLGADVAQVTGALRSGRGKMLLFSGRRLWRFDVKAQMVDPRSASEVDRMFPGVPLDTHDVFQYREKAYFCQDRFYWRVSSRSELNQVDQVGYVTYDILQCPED
Description: as §1, §2
The MMP-9 proenzyme was purified by gelatin Sepharose chromatography from spent media of MMP-9-transfected HT1080 cells provided by Dr. Howard Welgus of Washington University (St. Louis, Mo.).
as §3, §4, §5, §6, §7

Human recombinant MMP-14 = biological target: T4, Human recombinant MMP-14 (Homo sapiens, UniProt P50281)
T4 construct: The catalytic domain enzyme was expressed in E. coli inclusion bodies, solubilized in urea; made in house
Description: as §1, §2
The MMP-14 full length cDNA was provided by Dr. Gregory Goldberg of Washington University (St. Louis, Mo.). The catalytic domain enzyme was expressed in E. coli inclusion bodies, solubilized in urea, purified on a preparative […] reverse phase HPLC column, and then refolded in the presence of zinc acetate and purified for use.
as §3, §4, §5, §6, §7

Ki (Human recombinant MMP-1; Table 2) [nM] | Ki (Human recombinant MMP-2; Table 2) [nM] | Ki (Human recombinant MMP-9; Table 2) [nM] | Ki (Human recombinant MMP-14; Table 2) [nM] | Ki (Human recombinant MMP-1; Table 1) [nM] | Ki (Human recombinant MMP-2; Table 1) [nM] | Ki (Human recombinant MMP-9; Table 1) [nM] | Ki (Human recombinant MMP-14; Table 1) [nM] | Compound
> 10000 | 1.75 | 7.09 | 139 | – | – | – | – | CCN1CCC(C(=O)NO)(S(=O)(=O)c2ccc(-c3noc(-c4ccc(F)cc4)n3)cc2)CC1 [Example 147]
481 | 0.037 | 1.13 | 187 | – | – | – | – | O=C(NO)C1(S(=O)(=O)c2ccc(-c3ccc(OCCCC(F)(F)F)cn3)cc2)CCOCC1 [Example 144]
1070 | 0.074 | 0.418 | 308 | – | – | – | – | CCN1CCC(C(=O)NO)(S(=O)(=O)c2ccc(-c3ccc(-c4ccncc4)cc3)cc2)CC1 [Example 136]
4410 | 0.94 | 8.56 | 745 | – | – | – | – | O=C(NO)C1(S(=O)(=O)c2ccc(-c3ccc(CCC4CCCCC4)cn3)cc2)CCOCC1 [Example 129]
1500 | 0.37 | 0.47 | 307 | – | – | – | – | O=C(NO)C1(S(=O)(=O)c2ccc(-c3ccc(-c4ccccc4F)cn3)cc2)CCN(C2CC2)CC1 [Example 150]
> 1250 | 14.2 | 12.8 | > 1250 | – | – | – | – | CC(C)(C)CCNc1cnc(-c2ccc(S(=O)(=O)C3(C(=O)NO)CCOCC3)cc2)cn1 [Example 130]
> 10000 | 0.76 | 5.18 | 117 | – | – | – | – | CCN1CCC(C(=O)NO)(S(=O)(=O)c2ccc(-c3noc(-c4ccc(C(F)(F)F)cc4)n3)cc2)CC1 [Example 149]
1840 | 0.13 | 0.34 | 493 | – | – | – | – | O=C(NO)C1(S(=O)(=O)c2ccc(-c3cnc(OCC(F)(F)C(F)(F)F)cn3)cc2)CCOCC1 [Example 154]
> 2500 | 5.08 | 4.36 | > 2500 | – | – | – | – | O=C(NO)C1(S(=O)(=O)c2ccc(-c3cnc(NCC4CC4)cn3)cc2)CCOCC1 [Example 128]
> 10000 | 0.176 | 0.127 | 604 | – | – | – | – | CCCCc1ccc(-c2ccc(S(=O)(=O)C3(C(=O)NO)CCN(CC)CC3)cc2)nc1 [Example 140]

Further lines, the molecule ahead of its results:

Compound | Ki (Human recombinant MMP-1; Table 2) [nM] | Ki (Human recombinant MMP-2; Table 2) [nM] | Ki (Human recombinant MMP-9; Table 2) [nM] | Ki (Human recombinant MMP-14; Table 2) [nM] | Ki (Human recombinant MMP-1; Table 1) [nM] | Ki (Human recombinant MMP-2; Table 1) [nM] | Ki (Human recombinant MMP-9; Table 1) [nM] | Ki (Human recombinant MMP-14; Table 1) [nM]
CCCCOc1ccc(-c2ccc(S(=O)(=O)C3(C(=O)NO)CCN(CCOC)CC3)cc2)cc1 [Example 119] | 1770 | 0.093 | 0.15 | 171 | – | – | – | –
CC(F)(F)CCc1cnc(-c2ccc(S(=O)(=O)C3(C(=O)NO)CCOCC3)cc2)cn1 [Example 60] | – | – | – | – | > 10000 | 0.463 | 0.623 | 1880
CC(C)(C)N1CCC(C(=O)NO)(S(=O)(=O)c2ccc(-c3ccc(CCCC(F)(F)F)cc3)cc2)CC1 [Example 48] | – | – | – | – | > 10000 | 1.84 | 3.54 | 8450
O=C(NO)C1(S(=O)(=O)c2ccc(-c3ccc(CCC(F)(F)C(F)(F)F)cn3)cc2)CCOCC1 [Example 36] | – | – | – | – | 4720 | 0.0708 | 0.258 | 523
CCCCCc1ccc(-c2ccc(S(=O)(=O)C3(C(=O)NO)CCOCC3)cc2)cc1 [Example 75] | 3970 | 0.674 | 1.01 | 621 | – | – | – | –
CCN1CCC(C(=O)NO)(S(=O)(=O)c2ccc(-c3ccc(CCC(C)(F)F)cc3)cc2)CC1 [Example 61] | – | – | – | – | 3040 | 0.11 | 0.26 | 570
O=C(NO)C1(S(=O)(=O)c2ccc(-c3ccc(CCC(F)(F)C(F)(F)F)cc3)cc2)CCN(C2CC2)CC1 [Example 45] | – | – | – | – | > 10000 | 0.55 | 1.16 | 1730
COCCN1CCC(C(=O)NO)(S(=O)(=O)c2ccc(-c3ccc(OC(F)(F)C(F)F)cc3)cc2)CC1 [Example 39] | – | – | – | – | 335 | 0.009 | 0.045 | 185
O=C(NO)C1(S(=O)(=O)c2ccc(-c3ccc(CCCC(F)(F)F)cc3)cc2)CCN(C2CC2)CC1 [Example 44] | – | – | – | – | 8690 | 0.48 | 0.68 | 2160
CCN1CCC(C(=O)NO)(S(=O)(=O)c2ccc(-c3cnc(CCC(C)(F)F)cn3)cc2)CC1 [Example 64] | – | – | – | – | > 10000 | 1.65 | 0.677 | > 10000
O=C(NO)C1(S(=O)(=O)c2ccc(-c3ccc(-n4ccnc4)cc3)cc2)CCOCC1 [Example 127] | 1010 | 0.147 | 1.89 | 414 | – | – | – | –
CCOCCOc1ccc(-c2ccc(S(=O)(=O)C3(C(=O)NO)CCOCC3)cc2)cc1 [Example 37] | – | – | – | – | 1450 | 0.089 | 3.51 | 632
O=C(NO)C1(S(=O)(=O)c2ccc(-c3ccc(OC(F)(F)C(F)F)cc3)cc2)CCN(CCl)CC1 [Example 38] | – | – | – | – | 650 | 0.037 | 0.126 | 446
CC(F)(F)CCc1ccc(-c2ccc(S(=O)(=O)C3(C(=O)NO)CCN(C4CC4)CC3)cc2)cc1 [Example 59] | – | – | – | – | 2170 | 0.11 | 0.16 | 390
O=C(NO)C1(S(=O)(=O)c2ccc(-c3cnc(CCC4CC4)cn3)cc2)CCOCC1 [Example 49] | – | – | – | – | > 10000 | 2.36 | 0.88 | 3620
O=C(NO)C1(S(=O)(=O)c2ccc(-c3ccc(CCC(F)(F)C(F)(F)F)cn3)cc2)CCN(C2CC2)CC1 [Example 50] | – | – | – | – | 7880 | 0.19 | 0.22 | 1190
